Measurements published in ChEMBL document CHEMBL1909046, “DrugMatrix in vitro pharmacology data”.

Tests used:
[1] = DRUGMATRIX: ATPase, Na+/K+ enzyme inhibition (substrate: ATP); assay type: tissue-based, Sus scrofa, Heart; conditions: Not Active = under 50% inhibition at 10 µM
[2] = molecular target: T1, Calcitonin receptor (Homo sapiens, UniProt P30988); assay type: cell membranes, Membrane; conditions: t47d; further: in other assays of this panel Not Active means under 50% inhibition at 10 µM
T1 sequence (P30988 whole entry): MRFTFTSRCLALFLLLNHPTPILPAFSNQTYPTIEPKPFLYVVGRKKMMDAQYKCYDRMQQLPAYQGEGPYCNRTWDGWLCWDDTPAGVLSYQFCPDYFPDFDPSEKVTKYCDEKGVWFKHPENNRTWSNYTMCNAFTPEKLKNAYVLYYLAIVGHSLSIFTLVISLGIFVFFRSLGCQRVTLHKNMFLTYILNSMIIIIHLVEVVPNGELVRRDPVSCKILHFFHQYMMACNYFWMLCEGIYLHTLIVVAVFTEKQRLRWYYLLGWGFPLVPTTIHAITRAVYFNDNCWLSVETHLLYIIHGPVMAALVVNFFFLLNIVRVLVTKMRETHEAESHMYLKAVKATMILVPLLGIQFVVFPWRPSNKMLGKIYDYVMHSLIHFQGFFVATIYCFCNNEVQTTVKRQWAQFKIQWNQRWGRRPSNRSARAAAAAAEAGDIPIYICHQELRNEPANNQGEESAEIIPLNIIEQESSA

[3] = DRUGMATRIX: Calcium Channel Type L, Benzothiazepine radioligand binding (ligand: [3H] Diltiazem); assay type: cell membranes, Rattus norvegicus, Wistar, Brain, Membrane; conditions: Not Active = under 50% inhibition at 10 µM
[4] = molecular target: C-C chemokine receptor type 5 (Homo sapiens, UniProt P51681); assay type: cell membranes, Membrane; conditions: hek293; further: in other assays of this panel Not Active means under 50% inhibition at 10 µM
Sequence of C-C chemokine receptor type 5 (P51681 whole entry): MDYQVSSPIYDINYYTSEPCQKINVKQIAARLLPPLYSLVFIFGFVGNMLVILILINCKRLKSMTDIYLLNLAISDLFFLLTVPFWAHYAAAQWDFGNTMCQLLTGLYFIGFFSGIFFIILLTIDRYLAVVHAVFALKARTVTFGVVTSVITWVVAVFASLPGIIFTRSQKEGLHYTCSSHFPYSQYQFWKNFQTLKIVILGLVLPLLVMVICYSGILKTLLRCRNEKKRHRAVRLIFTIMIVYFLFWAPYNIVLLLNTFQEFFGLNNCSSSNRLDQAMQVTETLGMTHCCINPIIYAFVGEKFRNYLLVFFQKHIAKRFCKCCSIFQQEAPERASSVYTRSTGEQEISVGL

[5] = molecular target: T2, Leukotriene C4 synthase (Cavia porcellus, UniProt A6XA80); assay type: tissue-based, Lung;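 further: enzyme inhibition assay of leukotriene C4 synthase, using LTA4 as the substrate; in other assays of this panel Not Active means under 50% inhibition at 10 µM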
T2 sequence (A6XA80 whole entry): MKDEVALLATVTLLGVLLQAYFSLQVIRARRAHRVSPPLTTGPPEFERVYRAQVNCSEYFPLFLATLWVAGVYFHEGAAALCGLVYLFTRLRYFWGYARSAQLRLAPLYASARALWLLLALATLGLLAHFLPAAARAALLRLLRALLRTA

[6] = molecular target: T3, Receptor-type tyrosine-protein phosphatase C (Homo sapiens, UniProt P08575); set-up: species or system Escherichia coli;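 further: inhibition of CD45 enzyme activity measured using DiFMUP as substrate; in other assays of this panel Not Active means under 50% inhibition at 10 µM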
T3 sequence (P08575 whole entry): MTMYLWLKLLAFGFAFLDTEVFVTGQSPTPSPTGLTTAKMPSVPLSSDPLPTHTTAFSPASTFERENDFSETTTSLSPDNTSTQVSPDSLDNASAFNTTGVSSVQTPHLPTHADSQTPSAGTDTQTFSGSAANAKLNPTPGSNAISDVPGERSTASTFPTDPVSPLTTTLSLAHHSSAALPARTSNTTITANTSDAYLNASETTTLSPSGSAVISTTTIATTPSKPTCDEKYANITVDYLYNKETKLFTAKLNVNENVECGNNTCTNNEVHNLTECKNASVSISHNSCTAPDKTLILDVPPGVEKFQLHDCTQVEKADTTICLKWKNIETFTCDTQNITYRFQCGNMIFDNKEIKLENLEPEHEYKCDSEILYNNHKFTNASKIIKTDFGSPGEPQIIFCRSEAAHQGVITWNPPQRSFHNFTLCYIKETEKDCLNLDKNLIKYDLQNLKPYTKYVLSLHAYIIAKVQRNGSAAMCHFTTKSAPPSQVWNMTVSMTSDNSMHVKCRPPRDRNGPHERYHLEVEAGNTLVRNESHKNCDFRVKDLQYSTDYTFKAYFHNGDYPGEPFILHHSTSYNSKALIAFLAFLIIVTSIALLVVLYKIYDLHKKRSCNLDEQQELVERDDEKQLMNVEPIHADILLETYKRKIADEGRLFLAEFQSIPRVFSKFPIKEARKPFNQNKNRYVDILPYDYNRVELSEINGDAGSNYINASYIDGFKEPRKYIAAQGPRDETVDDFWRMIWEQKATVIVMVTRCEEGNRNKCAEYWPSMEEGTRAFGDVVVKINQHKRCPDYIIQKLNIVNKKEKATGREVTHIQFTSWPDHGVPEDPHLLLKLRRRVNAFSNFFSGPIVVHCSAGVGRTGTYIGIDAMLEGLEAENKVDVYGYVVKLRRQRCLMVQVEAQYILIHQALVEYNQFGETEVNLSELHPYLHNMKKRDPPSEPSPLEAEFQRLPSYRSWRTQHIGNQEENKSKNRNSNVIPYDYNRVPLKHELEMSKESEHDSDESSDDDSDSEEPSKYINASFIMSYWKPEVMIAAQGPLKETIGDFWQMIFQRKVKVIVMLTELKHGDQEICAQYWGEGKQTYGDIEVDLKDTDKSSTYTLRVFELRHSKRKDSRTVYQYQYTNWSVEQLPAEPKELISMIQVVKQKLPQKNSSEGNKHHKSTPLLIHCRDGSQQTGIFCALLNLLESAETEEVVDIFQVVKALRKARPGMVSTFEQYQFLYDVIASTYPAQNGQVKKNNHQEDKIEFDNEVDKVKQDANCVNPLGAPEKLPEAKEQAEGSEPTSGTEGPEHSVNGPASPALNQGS

[7] = DRUGMATRIX: Purinergic P2X radioligand binding (ligand: [3H] alpha, beta-Methylene-ATP); assay type: cell membranes, Oryctolagus cuniculus, New Zealand albino, Urinary bladder, Membrane; conditions: Not Active = under 50% inhibition at 10 µM
[8] = molecular target: Cytochrome P450 2C9 (Homo sapiens, UniProt P11712); conditions: bti-tn-5b1-4; further: in other assays of this panel Not Active means under 50% inhibition at 10 µM
Sequence of Cytochrome P450 2C9 (P11712 whole entry): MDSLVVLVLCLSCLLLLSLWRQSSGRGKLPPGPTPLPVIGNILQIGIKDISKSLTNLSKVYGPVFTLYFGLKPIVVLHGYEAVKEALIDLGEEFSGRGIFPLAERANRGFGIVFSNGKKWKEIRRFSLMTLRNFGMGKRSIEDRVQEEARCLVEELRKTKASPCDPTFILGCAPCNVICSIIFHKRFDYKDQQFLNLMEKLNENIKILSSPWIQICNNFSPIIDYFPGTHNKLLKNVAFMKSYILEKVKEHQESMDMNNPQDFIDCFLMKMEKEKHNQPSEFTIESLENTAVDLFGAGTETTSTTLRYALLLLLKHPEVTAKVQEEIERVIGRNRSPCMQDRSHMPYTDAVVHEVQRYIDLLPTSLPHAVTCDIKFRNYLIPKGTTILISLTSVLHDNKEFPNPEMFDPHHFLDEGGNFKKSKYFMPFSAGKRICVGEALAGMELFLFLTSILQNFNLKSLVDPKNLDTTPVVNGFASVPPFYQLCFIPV

SMILES	IC50 [1]	Ki [1]	IC50 [2]	IC50 [3]	Ki [3]	IC50 [4]	IC50 [5]	IC50 [6]	IC50 [7]	Ki [7]	IC50 [8]	Ki [8]	IC50 ([3]; read-out: IC50) [µM]	Ki ([3]; read-out: Ki) [µM]	IC50 ([1]; read-out: IC50) [µM]
CC(C)(C)NCC(O)c1cc(Cl)c(N)c(Cl)c1 (stereo unspecified) [CLENBUTEROL]	Not Active	Not Active	Not Active	Not Active	Not Active	Not Active	Not Active	Not Active	Not Active	Not Active	Not Active	Not Active			
CC(O)CO (stereo unspecified) [PROPYLENE GLYCOL]	Not Active	Not Active	Not Active	Not Active	Not Active	Not Active	Not Active	Not Active	Not Active	Not Active	Not Active	Not Active			
CC1Cc2ccccc2N1NC(=O)c1ccc(Cl)c(S(N)(=O)=O)c1 (stereo unspecified) [INDAPAMIDE]	Not Active	Not Active	Not Active	Not Active	Not Active	Not Active	Not Active	Not Active	Not Active	Not Active	Not Active	Not Active			
c1ccc(Nc2ccc(Nc3ccccc3)cc2)cc1	Not Active	Not Active	Not Active	Not Active	Not Active	Not Active	Not Active	Not Active	Not Active	Not Active	Not Active	Not Active			
COc1cc2nc(N3CCN(C(=O)C4COc5ccccc5O4)CC3)nc(N)c2cc1OC (stereo unspecified) [DOXAZOSIN]	Not Active	Not Active	Not Active	Not Active	Not Active	Not Active	Not Active	Not Active	Not Active	Not Active	Not Active	Not Active			
CCOc1ccc(NC(C)=O)cc1 [PHENACETIN]	Not Active	Not Active	Not Active	Not Active	Not Active	Not Active	Not Active	Not Active	Not Active	Not Active	Not Active	Not Active			
CN(C)CCCN1c2ccccc2Sc2ccc(Cl)cc21 [CHLORPROMAZINE]	Not Active	Not Active	Not Active			Not Active	Not Active	Not Active	Not Active	Not Active			3.21	2.86	
CC(C)(Oc1ccc(Cl)cc1)C(=O)O [CLOFIBRIC ACID]	Not Active	Not Active	Not Active	Not Active	Not Active	Not Active	Not Active	Not Active	Not Active	Not Active					
O=c1oc2ccccc2c(O)c1Cc1c(O)c2ccccc2oc1=O [DICUMAROL]	Not Active	Not Active	Not Active	Not Active	Not Active	Not Active	Not Active	Not Active	Not Active	Not Active					
CC1(C)S[C@@H]2[C@H](NC(=O)Cc3ccccc3)C(=O)N2[C@H]1C(=O)O [PENICILLIN G]	Not Active	Not Active	Not Active	Not Active	Not Active	Not Active	Not Active	Not Active	Not Active	Not Active					
N=C(N)NCCN1CCCCCCC1 [GUANETHIDINE]	Not Active	Not Active	Not Active	Not Active	Not Active	Not Active	Not Active	Not Active	Not Active	Not Active					
CCCCc1nc(Cl)c(CO)n1Cc1ccc(-c2ccccc2-c2nnn[nH]2)cc1 [LOSARTAN]	Not Active	Not Active	Not Active	Not Active	Not Active	Not Active	Not Active	Not Active	Not Active	Not Active					
Nc1c(Br)cc(Br)cc1CN[C@H]1CC[C@H](O)CC1 [AMBROXOL]	Not Active	Not Active	Not Active	Not Active	Not Active	Not Active	Not Active	Not Active	Not Active	Not Active					
Cc1cc(C(C#N)c2ccc(Cl)cc2)c(Cl)cc1NC(=O)c1cc(I)cc(I)c1O (stereo unspecified) [CLOSANTEL]			Not Active	Not Active	Not Active	Not Active	Not Active	Not Active	Not Active	Not Active					4.88
Cc1onc(-c2ccccc2Cl)c1C(=O)N[C@@H]1C(=O)N2[C@@H]1SC(C)(C)[C@@H]2C(=O)O [CLOXACILLIN]	Not Active	Not Active	Not Active	Not Active	Not Active	Not Active	Not Active	Not Active	Not Active	Not Active					
C[C@]12CC[C@@H]3c4ccc(O)cc4CC[C@H]3[C@@H]1CCC2=O [ESTRONE]	Not Active	Not Active	Not Active	Not Active	Not Active	Not Active	Not Active	Not Active	Not Active	Not Active					
CN(C)CCCN1c2ccccc2Sc2ccccc21 [PROMAZINE]	Not Active	Not Active	Not Active			Not Active	Not Active	Not Active	Not Active	Not Active			3.22	2.86	
CN(C)c1nc(N(C)C)nc(N(C)C)n1 [ALTRETAMINE]	Not Active	Not Active	Not Active	Not Active	Not Active	Not Active	Not Active	Not Active	Not Active	Not Active					
CC(C)[C@@]1(NC(=O)[C@@H]2C[C@@H]3c4cccc5[nH]cc(c45)C[C@H]3N(C)C2)O[C@@]2(O)[C@@H]3CCCN3C(=O)[C@H](Cc3ccccc3)N2C1=O.CS(=O)(=O)O [DIHYDROERGOCRISTINE MESYLATE]	Not Active	Not Active	Not Active	Not Active	Not Active	Not Active	Not Active	Not Active	Not Active	Not Active					
